“Also recorded” adds a separate entry of the source. Non-standard residues stand in square brackets, D forms with d. Residues, ends and D or L forms follow the SMILES beside them. *: point of attachment. Biotin = O=C1N[C@H]2[C@H](CS[C@H]2CCCCC(=O)*)N1; Benzoyl(4-SO2F) = O=C(c1ccc(S(=O)(=O)F)cc1)*; pY = N[C@@H](Cc1ccc(OP(=O)(O)O)cc1)C(=O)O; Dap = NC[C@H](N)C(=O)O
Key:
Nck/N-WASP/3pY = biological target: T1, Nck/N-WASP/3pY (Homo sapiens, UniProt P16333); experiment: Disruption of Nck/N-WASP/3pY droplets by pY peptides (microscopy); type: biochemical; settings: peptide 12.5, 25, 50, 100 µM; 0, 10, 30 min; Nck 80 μM, N-WASP 15 μM, 3pY 10 μM; confocal
T1 construct: GST (followed by PreScission/HRV 3C site) (N, cleaved yes); made in house; host or cells: E. coli BL21(DE3)
Protocol: Next, we explored the intervention of Nck/N-WASP/3pY LLPS using pY peptides (Figure 3a). Three pY-containing peptides extracted from different Tir sequences were synthesized, namely, peptides Y474, Y751, and Y147 (Figure 3b).
Figure 3 pY peptides disrupt Nck/N-WASP/3pY LLPS. (a) Sequences of synthetic pY peptides. […] Nck: 20 μM; N-WASP: 10 μM; 3pY: 10 μM. Scale bars, 20 μm. (c) Peptide Y474 rapidly decreases the turbidity of the Nck/N-WASP/3pY solution in around 20 min. Nck: 20 μM, N-WASP: 10 μM, 3pY: 10 μM. […] Nck: 20 μM, N-WASP: 10 μM, 3pY: 10 μM. […]
peptide 0 min 10 min 30 min
Peptides p1 with different concentrations were added to decrease the droplet formation of the Nck/N-WASP/3pY solution and droplet disassembles were observed under confocal microscopy at different times (0 min, 10 min and 30 min). Nck: 80 μM, N-WASP: 15 μM, 3pY: 10 μM. […]
Figure S13. […] Peptides Y474 with […]
different concentrations were added to decrease the droplet formation of the Nck/N-WASP/3pY solution and droplet disassembles were observed under confocal microscopy at different times (0 min, 10 min and 30 min). Nck: 80 μM, N-WASP: 15 μM, 3pY: 10 μM.

Nck-SH2 = experiment: Mass spectrometric analysis of Nck-p1 conjugate; type: binding
Protocol: We next identified the residues in Nck-SH2 that are involved in the reaction with p1 by mass spectrometry. […] The Nck–p1 conjugate was digested with trypsin, and peptide fragments were analyzed with an in-line EASY-spray source and nano-LC UltiMate 3000 HPLC system interfaced with an Elite mass spectrometer, operated in the data-dependent acquisition (DDA) mode with one full MS scan at R = 60,000 (m/z = 200) mass followed by HCD MS/MS scans. […] The fragmentation spectral analysis of [EEHIpYXEVAAD(α)] + [HFKVQLK(β)] extracted by pLabel v2.4.3.0 (Figure 5a and Figure S6 in the Supporting Information)[38],[39] confirmed the ligand-directed conjugation of Nck-SH2 protein with p1 peptide. The underlined lysine residue in the β-chain sequence indicated the cross-linked site on the predicted Nck Lys331 residue. Next, we mutated Nck Lys331 to Ala, expressed and purified the Nck-SH2K331A mutant. […]
The reaction mixture of Nck and p1 were digested with trypsin. Digested peptides were analyzed with an in-line EASY-spray source and nano-LC UltiMate 3000 high-performance liquid chromatography system (Thermo Fisher, USA) interfaced with an Elite mass spectrometer (Thermo Fisher, USA). The eluted peptides were detected by the Elite mass spectrometer, which was operated in data-dependent mode with one full MS scan at R = 60,000 (m/z = 200) mass, followed by MS/MS scans. […]

[1] = test system: EPEC infection of Caco-2 cells; experiment: EPEC infection assay of Caco-2 cells (CFU counts); type: cell-based, enteropathogenic Escherichia coli; settings: L17E 40 μM
Protocol: Lastly, to examine whether pretreatment of Caco-2 cells with L17E/p1 could prevent EPEC infection, we first established a bacterial infection assay (Figure 7a). Caco-2 cells were pretreated with L17E/p1 for 2 h. After excess peptides were removed, Caco-2 cells were then infected with EPEC at different multiplicity of infection (MOI) values (MOI is commonly defined as the ratio of infectious bacteria to cells in a culture) for 3 h, and extra bacterial cells were removed from the culture. Next, gentamicin was added to the cell culture to remove EPEC that are merely attached to the surface of Caco-2 cells, leaving only engulfed EPEC inside Caco2 cells to be counted (gentamicin treatment will not kill intracellular bacteria due to its cellular impermeability). After gentamicin was washed away, cells were lysed to release EPEC cells inside, and the cell lysates were diluted to count the number of EPEC cells as colony-forming units (cfu) on agar plates.
Caco-2 cells were seeded in a 24-well plate at a density of 1×10^4 cells for 24 h and pretreated with peptide complexes for 2 h. After washing with DMEM, cells were infected with EPEC at selected MOI values for 3 h at 37 ℃. Cells were then treated with gentamicin ([…]) for 2 h and lysed with 1% […]
Triton X-100 for 15 min. […]
The sample was loaded onto 12% SDS/PAGE glycerol gel and then transferred onto a PVDF membrane using Bio-Rad […]. The membrane was blocked and incubated with a rabbit anti-Nck antibody (Abcam, Hong Kong) at 4 °C overnight, followed by a n anti -rabbit HRP -labeled secondary antibody (Abcam, Hong Kong).
SPSS 23.0 statistical software was used to process experimental data. The differences between mean ± SEM of three independent experiments were assessed by Student's t -test.

## CC[C@H](C)[C@H](NC(=O)[C@H](Cc1c[nH]cn1)NC(=O)[C@H](CCC(=O)O)NC(=O)[C@H](CCC(=O)O)NC(=O)CCCC[C@@H]1SC[C@@H]2NC(=O)N[C@@H]21)C(=O)N[C@@H](Cc1ccc(OP(=O)(O)O)cc1)C(=O)N[C@@H](CNC(=O)c1ccc(S(=O)(=O)F)cc1)C(=O)N[C@@H](CCC(=O)O)C(=O)N[C@H](C(=O)N[C@@H](C)C(=O)N[C@@H](C)C(=O)N[C@@H](CC(=O)O)C(N)=O)C(C)C [p1] (Biotin-EEHI[pY][Dap](Benzoyl(4-SO2F))EVAAD-NH2; N-terminus and C-terminus assumed)
Nck/N-WASP/3pY
  reversal of Nck/N-WASP/3pY phase separation (droplet disassembly): reverses the phase separation; also recorded: disintegrate phase-separated Nck droplets
Nck-SH2; Nck and Nck-p1 conjugate
  conjugation stoichiometry by LC-MS: only one p1 was conjugated with Nck
Nck-SH2; trypsin digest, MS/MS, K331A mutation
  reaction site on Nck-SH2: Lys331
[1]; p1 vs Y474 at lower concentrations
  efficacy compared with Y474 in anti-infection assay: significantly higher efficacy than Y474 at lower concentrations
[1]; with L17E-mediated delivery
  blockage of EPEC invasion/infection of Caco-2 cells: rendered Caco-2 cells resistant to EPEC infection; also recorded: can block EPEC invasion to Caco-2 cells

Source: article PMC10755736, “Modulating Liquid–Liquid Phase Separation of Nck Adaptor Protein against Enteropathogenic Escherichia coli Infection” (ACS Central Science, 2023)
